From the supplement of paper PMC13380429

Experiments:
Caco-2 [1] = assay: drug sensitivity score (DSS) for viability; higher = more toxic; extreme values may be limits of the assay; details: 72 h
U2OS [2] = assay: as above; details: 72 h
HepG2 [3] = assay: as above; details: 72 h
Calu-3 [4] = assay: as above; details: 72 h
Vero E6 [5] = assay: as above; details: 72 h
[6] = system: A549-ACE2 infected with SARS-CoV-2; assay: SARS-CoV-2 infection rate relative to DMSO; higher = more infection; details: 24 h
Caco-2 [7] = assay: relative viability EC50 (midpoint between 100% and the lowest measured viability); higher = less toxic; details: 72 h
U2OS [8] = assay: as above; details: 72 h
HepG2 [9] = assay: as above; details: 72 h
[10] = system: A549-ACE2 infected with SARS-CoV-2; assay: cell count relative to DMSO; higher = less toxic; details: 24 h
Caco-2 [11] = assay: cell viability relative to DMSO; higher = less toxic; details: 72 h
U2OS [12] = assay: as above; details: 72 h
HepG2 [13] = assay: as above; details: 72 h
Calu-3 [14] = assay: as above; details: 72 h
Vero E6 [15] = assay: as above; details: 72 h
[16] = system: A549-ACE2 infected with SARS-CoV-2; assay: morphology score (similarity to uninfected cells); higher = more like uninfected cells; details: 24 h
A549-ACE2 = assay: drug-induced phospholipidosis relative to tamoxifen; higher = more phospholipidosis
Calu-3 [17] = assay: relative viability EC50 (midpoint between 100% and the lowest measured viability); higher = less toxic; details: 72 h
Vero E6 [18] = assay: as above; details: 72 h

CC(=O)[O-].CC(=O)[O-].N.NC1CCCCC1.[Cl-].[Cl-].[Pt+4] [satraplatin]
Details	drug sensitivity score	relative viability EC50 [µM]
Caco-2 [1]	4.3	–
Caco-2 [7]	–	2.21
Calu-3 [4]	2.2	–
HepG2 [3]	7	–
HepG2 [9]	–	1.16
U2OS [2]	4.7	–
U2OS [8]	–	3.44
Vero E6 [5]	2.4	–

Details	SARS-CoV-2 infection rate, [6] [%]	cell count, [10] [%]	cell viability, Caco-2 [11] [%]	cell viability, Calu-3 [14] [%]	cell viability, HepG2 [13] [%]	cell viability, U2OS [12] [%]	cell viability, Vero E6 [15] [%]	morphology score, [16]
1 nM	–	–	95.7	113	105	104	106	–
10 nM	–	–	99.7	119	96.5	109	103	–
0.1 µM	107	107	–	–	–	–	–	0.11
100 nM	–	–	93.5	96.6	102	103	93.4	–
0.3 µM	108	94	–	–	–	–	–	-0.19
1 µM	90	98	–	–	–	–	–	0.26
1000 nM	–	–	93.3	94.8	73.8	105	91.7	–
3 µM	97	93	–	–	–	–	–	0.04
10000 nM	–	–	42	69	36.1	8.5	68.1	–

drug-induced phospholipidosis [%], A549-ACE2
Details	0.3 µM	0.833333 µM	3.33333 µM	6.66667 µM	10 µM
24 h	3.84	0.69	3.32	0.26	5.28
48 h	3.35	-1.19	-0.57	-1.29	-2.3
72 h	2.49	-2.74	0.684	–	–

Cc1ccc(-n2nc(C(C)(C)C)cc2NC(=O)Nc2ccc(OCCN3CCOCC3)c3ccccc23)cc1 [doramapimod]
Details	drug sensitivity score	relative viability EC50 [µM]
Caco-2 [1]	0.3	–
Caco-2 [7]	–	> 10
Calu-3 [4]	0	–
Calu-3 [17]	–	> 10
HepG2 [3]	0	–
HepG2 [9]	–	> 10
U2OS [2]	0	–
U2OS [8]	–	> 10
Vero E6 [5]	0	–
Vero E6 [18]	–	> 10

Details	SARS-CoV-2 infection rate, [6] [%]	cell count, [10] [%]	cell viability, Caco-2 [11] [%]	cell viability, Calu-3 [14] [%]	cell viability, HepG2 [13] [%]	cell viability, U2OS [12] [%]	cell viability, Vero E6 [15] [%]	morphology score, [16]
1 nM	–	–	93.8	114	107	98.6	108	–
10 nM	–	–	108	97.3	105	104	95.2	–
100 nM	–	–	89.3	92.4	99.7	91.6	95.5	–
0.3 µM	105	91	–	–	–	–	–	-0.27
1000 nM	–	–	90.9	97.2	104	93.7	95.7	–
3 µM	68	105	–	–	–	–	–	0.36
10 µM	72	115	–	–	–	–	–	0.7
10000 nM	–	–	93.6	88.4	111	95.6	104	–
30 µM	16	70	–	–	–	–	–	0.44

drug-induced phospholipidosis [%], A549-ACE2
Details	0.3 µM	0.833333 µM	3.33333 µM	6.66667 µM	10 µM	30 µM
24 h	-1.22	-3.86	-2.5	7.51	20.8	66.3
48 h	-2.88	-4.62	-1.1	6.99	15.5	–
72 h	-1.89	-3.86	1.71	12.1	19.8	–

OC1=c2ccccc2=C(NC2CCCCC2)/C1=C\c1ccccc1
Details	drug sensitivity score	relative viability EC50 [µM]
Caco-2 [1]	5.6	–
Caco-2 [7]	–	1.86
Calu-3 [4]	3.6	–
Calu-3 [17]	–	3.1
HepG2 [3]	6.5	–
HepG2 [9]	–	2.59
U2OS [2]	8.3	–
U2OS [8]	–	1.88
Vero E6 [5]	6.3	–
Vero E6 [18]	–	2.4

Details	SARS-CoV-2 infection rate, [6] [%]	cell count, [10] [%]	cell viability, Caco-2 [11] [%]	cell viability, Calu-3 [14] [%]	cell viability, HepG2 [13] [%]	cell viability, U2OS [12] [%]	cell viability, Vero E6 [15] [%]	morphology score, [16]
1 nM	–	–	107	89.1	95.6	98.9	93.6	–
10 nM	–	–	92	82.2	104	99.4	95.2	–
0.1 µM	96	99	–	–	–	–	–	-0.03
100 nM	–	–	96	90.1	101	108	96.9	–
0.3 µM	99	101	–	–	–	–	–	0.22
1 µM	103	99	–	–	–	–	–	-0.06
1000 nM	–	–	88.3	99.5	93	83	91.7	–
3 µM	93	73	–	–	–	–	–	0.11
10000 nM	–	–	32.8	35.8	1.2	0.1	10.5	–

drug-induced phospholipidosis [%], A549-ACE2
Details	0.3 µM	0.833333 µM	3.33333 µM	30 µM
24 h	2.77	-0.77	1.63	12.9
48 h	0.98	-0.44	6.41	–
72 h	1.89	-2.33	6.19	–

CN(C)c1ccc(-c2nc3c(N4CCN(CC(=O)Nc5nccs5)CC4)c(Cl)cnc3[nH]2)cc1
Details	drug sensitivity score	relative viability EC50 [µM]
Caco-2 [1]	0	–
Caco-2 [7]	–	> 10
Calu-3 [4]	0	–
Calu-3 [17]	–	> 10
HepG2 [3]	0	–
HepG2 [9]	–	> 10
U2OS [2]	2.8	–
Vero E6 [5]	0	–
Vero E6 [18]	–	> 10

Details	SARS-CoV-2 infection rate, [6] [%]	cell count, [10] [%]	cell viability, Caco-2 [11] [%]	cell viability, Calu-3 [14] [%]	cell viability, HepG2 [13] [%]	cell viability, U2OS [12] [%]	cell viability, Vero E6 [15] [%]	morphology score, [16]
1 nM	–	–	99.6	102	105	97.1	94.5	–
10 nM	–	–	103	95.7	105	90.9	97.6	–
100 nM	–	–	96.4	91.3	92	98	88.7	–
0.3 µM	94	101	–	–	–	–	–	0.26
1000 nM	–	–	94.7	109	99.9	89.3	95.8	–
3 µM	101	97	–	–	–	–	–	-0.1
10 µM	96	97	–	–	–	–	–	0.16
10000 nM	–	–	98.7	91.5	98.2	67.4	100	–
30 µM	65	83	–	–	–	–	–	0.47

drug-induced phospholipidosis [%], A549-ACE2
Details	0.3 µM	0.833333 µM	3.33333 µM	6.66667 µM	10 µM	30 µM
24 h	4.66	-0.19	5.5	0.89	5.75	7.19
48 h	6.88	1.34	2.05	1.71	1.43	6.09
72 h	3.52	-6.12	-1.19	0.0519	-2.06	6.76
